Columns and labels:
[1] = rats; cited from earlier work
[2] = Biodistribution in normal rats; assay type: in vivo, rats (Sprague–Dawley); settings: mean ± SD; for Percent injected dose in blood: i.v. tail vein
[3] = Biodistribution in rats with renal pedicle ligation; assay type: in vivo, rats (Sprague–Dawley)
[4] = Sprague-Dawley rats; cited from earlier work
[5] = rats with renal pedicle ligation, 60 min post-injection, mean ± SD, n=5

N#Cc1cc(C(=O)NCC(=O)O)ccc1[18F] [^18F-CNPFH, ^18F-m-cyano-p-fluorohippurate]
Route of elimination [1]: eliminated by both renal and hepatobiliary pathways

O=C(O)CNC(=O)c1ccc([18F])cc1 [^18F-PFH, ^18F-p-fluorohippurate]
Route of elimination [1]: rapidly and exclusively cleared by the kidneys

O=C(O)CNC(=O)c1ccccc1[131I] [^131I-OIH, ^131I-o-iodohippurate]
Percent injected dose in blood ([2]; 10 min post-injection, n=7): 5.1 ± 0.5 % ID
Percent injected dose in bowel (intestines and stomach) ([2]; 10 min post-injection, n=7): 1.7 ± 0.5 % ID
Percent injected dose in kidney ([2]; 10 min post-injection, n=7): 5.3 ± 1.2 % ID
Percent injected dose in liver ([2]; 10 min post-injection, n=7): 3.3 ± 0.2 % ID
Percent injected dose in urine ([2]; 10 min post-injection, n=7): 50.8 ± 5.2 % ID
Percent injected dose in blood ([2]; 60 min post-injection, n=5): 0.8 ± 0.1 % ID
Percent injected dose in bowel (intestines and stomach) ([2]; 60 min post-injection, n=5): 1.8 ± 0.3 % ID
Percent injected dose in kidney ([2]; 60 min post-injection, n=5): 0.7 ± 0.4 % ID
Percent injected dose in liver ([2]; 60 min post-injection, n=5): 0.6 ± 0.2 % ID
Percent injected dose in urine ([2]; 60 min post-injection, n=5): 85.4 ± 3.1 % ID
Percent injected dose remaining in the spleen, heart and lung ([3]; rats with ligated renal pedicles, 60 min): less than 1%
Percent injected dose in blood [3, 5]: 15.1 ± 0.9 % ID
Percent injected dose in bowel (intestines and stomach) [3, 5]: 7.6 ± 1.1 % ID
Percent injected dose in kidney [3, 5]: 0.5 ± 0.2 % ID
Percent injected dose in liver [3, 5]: 7.1 ± 0.6 % ID

^125I-iothamalate
Clearance as percentage of the clearance of ^131I-OIH [4]: 40%
